Patent EP0974354A1, “Artemisinin derivatives” (The Hong Kong University of Science & Technology, priority 1998, dated 2000)
Values after ≈ are worked out from the molar mass of the structure shown. Values joined by “and” are separate entries in the source; they are usually repeats but may differ in a detail not shown here. Equal entries are not always repeated. Where two headings read alike, the source gives them in different places.

What was measured:
[1] = test system: Plasmodium Falciparum D6 Strain (Chloroquine sensitive); assay: In vitro screening against Plasmodium falciparum, radiolabelled hypoxanthine incorporation, D6 strain; type: cell-based; conditions: for IC50 / IC90: Plasmodium falciparum
Method: (§1) Two parasite strains - W2 resistant to chloroquine, and D6 sensitive to chloroquine but resistant to mefloquine were used.
(§2) The assay relies on incorporation of radiolabelled hypoxanthine by the parasite and inhibition of incorporation is attributed to activity of known or candidate antimalarial drugs. For each assay, proven antimalarials such as chloroquine, mefloquine, quinine, artemisinin and pyrimethamine were used as controls. The incubation period was 66 hours, and the starting parasitemia was 0.2% with 1% hematocrit. The medium was an RPMI-1640 culture with no folate or p-aminobenzoic acid. […] If a compound was submitted with no prior knowledge of activity, it was dissolved directly in dimethyl sulphoxide (DMSO), and diluted 400 fold with complete culture medium. […] These dilutions were performed automatically by a Biomek 1000 Liquid Handling System in 96-well microtiter plates. The diluted drugs were then transferred to test plates, 200 µl of parasitized erythrocytes were added, and incubated at 37°C in a controlled environment of 5% CO2, 5% O2 and 90% N2. After 42 hours, 25 µl of ^3H-hypoxanthine was added, and the plates incubated for an additional 24 hours. After 66 hours, the plates were frozen at -70°C to lyse the red cells, and then thawed and harvested onto glass fiber filter mats in a 96-well harvester. The filter mats were then counted in a scintillation counter.
(§3) A prescreen format can be used wherein a 3-dilution assay may be used to determine activity at high medium or low concentrations. The concentrations were selected as 50,000, 500 and 50 ng ml^-1. These were performed in duplicate on a 96-well format plate with 14 test compounds and one known (standard) compound per plate. The system was automated with a Biomek diluter for mixing and diluting the drugs, and adding drugs and parasites to a test plate.
(§4) In the prescreen format, if the […] […] If the AF has a ">", then the IC value is greater than the prescreen dilution value; thus "AF>250" means that the IC value is greater than 250 ng ml^-1 and no further screening is carried out. In such cases, values of 0.00 are entered for IC values.

[2] = test system: Plasmodium Falciparum W2 Strain (Chloroquine resistant); assay: In vitro screening against Plasmodium falciparum, radiolabelled hypoxanthine incorporation, W2 strain; type: cell-based; conditions: for IC50 / IC90: Plasmodium falciparum; for IC50: read-out: In vitro activity: IC50, W2 Strain (Chloroquine resistant); for IC90: read-out: In vitro activity: IC90, W2 Strain (Chloroquine resistant)
Method: as §1, §2, §3, §4

[3] = test system: parasite of the genus Plasmodium; assay: Antimalarial activity, general statement in the description, test not specified; conditions: qualitative statement
[4] = D6 Strain (Chloroquine sensitive), 66 hours incubation, Albumax medium
[5] = D6, 66 h, D6 Strain (Chloroquine sensitive), 66 hours incubation, Albumax medium, read-out: In vitro activity: IC50
[6] = D6, 66 h, D6 Strain (Chloroquine sensitive), 66 hours incubation, Albumax medium, read-out: In vitro activity: IC90
[7] = W2, 66 h, 66 hours incubation, Albumax medium
[8] = W2 Strain (Chloroquine resistant), 66 hours incubation, Albumax medium

SMILES	IC50 [1, 5] [ng/mL]	IC90 [1, 6] [ng/mL]	IC50 [2, 7] [ng/mL]	IC90 [2, 7] [ng/mL]	In vitro activity: IC50 [1, 4] [ng/mL]	In vitro activity: IC90 [1, 4] [ng/mL]	In vitro activity: IC50 ([2]; W2, 66 h) [ng/mL]	In vitro activity: IC90 ([2]; W2, 66 h) [ng/mL]	In vitro activity: (IC10) [1, 4]	In vitro activity: (IC10) ([2]; W2, 66 h) [ng/mL]	further results
CC1CCC2C(C)C(OCc3ccc4ccccc4c3)OC3OC4(C)CCC1C32OO4 (single isomer, unassigned) [3(α-isomer), 10α-[(2'-naphthylmethyl)oxy]dihydroartemisinin]					1.24	1.67			0.93 ng/mL		In vitro activity: (IC10) [2, 8]: 0.62 ng/mL; In vitro activity: IC50 [2, 8]: 1.54 ng/mL; In vitro activity: IC90 [2, 8]: 3.83 ng/mL
C[C@H]1[C@@H](OCc2ccc(F)cc2)O[C@@H]2O[C@@]3(C)CC[C@H]4[C@H](C)CC[C@@H]1[C@@]24OO3 [Example 10]	0.34 (≈ 0.866 nM)	0.58 (≈ 1.48 nM)	0.25 (≈ 0.637 nM)	0.86 (≈ 2.19 nM)					0.20 ng/mL	0.07	
CC1CCC2C(C)C(Oc3ccnc4ccccc34)OC3OC4(C)CCC1C32OO4 (stereo not drawn) [10β-(4'-Quinolinoxy)dihydroartemisinin]											antimalarial activity [3]: particularly interesting antimalarial activity
C[C@H]1[C@@H](OCc2cccc(F)c2)O[C@@H]2O[C@@]3(C)CC[C@H]4[C@H](C)CC[C@@H]1[C@@]24OO3 [Example 9]	0.36 (≈ 0.917 nM)	1.7 (≈ 4.33 nM)	0.45 (≈ 1.15 nM)	0.59 (≈ 1.5 nM)					0.08 ng/mL	0.35	
C[C@H]1[C@@H](OCC(F)(F)F)O[C@@H]2O[C@@]3(C)CC[C@H]4[C@H](C)CC[C@@H]1[C@@]24OO3 [Example 1, 10β-[(2',2',2'-trifluoroethyl)oxy]dihydroartemisinin]			0.26 (≈ 0.71 nM)						0.57 ng/mL		IC50 ([1]; D6, 66 h, read-out: In vitro activity: IC50): 0.77 ng/mL (≈ 2.1 nM); IC90 ([1]; D6, 66 h, read-out: In vitro activity: IC90): 1.04 ng/mL (≈ 2.84 nM); In vitro activity: (IC10) [2, 8]: 0.19 ng/mL and 0.20 ng/mL; In vitro activity: IC50 [2, 8]: 0.51 ng/mL
C[C@H]1[C@@H](OCc2cccc3c2ccc2ccccc23)O[C@@H]2O[C@@]3(C)CC[C@H]4[C@H](C)CC[C@@H]1[C@@]24OO3 [Example 13]	0.58 (≈ 1.22 nM)	0.77 (≈ 1.62 nM)	0.62 (≈ 1.31 nM)	0.79 (≈ 1.66 nM)					0.44 ng/mL	0.50	

Second part, led by results:

IC50 [1, 5] [ng/mL]	IC90 [1, 6] [ng/mL]	IC50 [2, 7] [ng/mL]	IC90 [2, 7] [ng/mL]	In vitro activity: IC50 [1, 4] [ng/mL]	In vitro activity: IC90 [1, 4] [ng/mL]	In vitro activity: IC50 ([2]; W2, 66 h) [ng/mL]	In vitro activity: IC90 ([2]; W2, 66 h) [ng/mL]	SMILES	In vitro activity: (IC10) [1, 4]	In vitro activity: (IC10) ([2]; W2, 66 h) [ng/mL]	further results
37.9 (≈ 76.1 nM)	49.5 (≈ 99.2 nM)	17.2 (≈ 34.5 nM)	24.9 (≈ 49.9 nM)					C[C@H]1[C@@H](OCc2ccc3ccc4cccc5ccc2c3c45)O[C@@H]2O[C@@]3(C)CC[C@H]4[C@H](C)CC[C@@H]1[C@@]24OO3 [Example 14]	29.09 ng/mL	11.90	
0.75 (≈ 1.91 nM)	1.22 (≈ 3.11 nM)	0.83 (≈ 2.11 nM)	1.08 (≈ 2.75 nM)					C[C@H]1[C@@H](OCc2ccccc2F)O[C@@H]2O[C@@]3(C)CC[C@H]4[C@H](C)CC[C@@H]1[C@@]24OO3 [Example 8]	0.46 ng/mL	0.63	
0.71 (≈ 1.48 nM)	0.93 (≈ 1.94 nM)	0.67 (≈ 1.4 nM)	0.81 (≈ 1.69 nM)					C[C@H]1[C@@H](Oc2ccnc3cc(C(F)(F)F)ccc23)O[C@@H]2O[C@@]3(C)CC[C@H]4[C@H](C)CC[C@@H]1[C@@]24OO3 [Example 2, 10β-[4'-(7'-trifluoromethylquinolinoxy)]dihydroartemisinin]	0.55 ng/mL	0.56	antimalarial activity [3]: particularly interesting antimalarial activity
0.43 (≈ 1.04 nM)	0.8 (≈ 1.94 nM)	1.24 (≈ 3.01 nM)	6.45 (≈ 15.7 nM)	0.61	0.91	2.03	9.11	C[C@H]1[C@@H](Oc2ccnc3ccccc23)O[C@@H]2O[C@@]3(C)CC[C@H]4[C@H](C)CC[C@@H]1[C@@]24OO3 [Example 15]	0.23 ng/mL and 0.41 ng/mL		
0.4 (≈ 0.942 nM)	0.53 (≈ 1.25 nM)	0.64 (≈ 1.51 nM)	0.78 (≈ 1.84 nM)	0.64	0.80	0.63	1.25	C[C@H]1[C@@H](OCc2ccc3ccccc3c2)O[C@@H]2O[C@@]3(C)CC[C@H]4[C@H](C)CC[C@@H]1[C@@]24OO3 [3(β-isomer), 10β-[(2'-naphthylmethyl)oxy]dihydroartemisinin]	0.31 ng/mL and 0.51 ng/mL		
1.42 (≈ 3.34 nM)	1.97 (≈ 4.64 nM)	0.67 (≈ 1.58 nM)	1.01 (≈ 2.38 nM)	1.47	1.81	0.70	1.17	C[C@H]1[C@H](OCc2cccc3ccccc23)O[C@@H]2O[C@@]3(C)CC[C@H]4[C@H](C)CC[C@@H]1[C@@]24OO3 [11(α-isomer)]	1.03 ng/mL and 1.20 ng/mL		
		132 (≈ 277 nM)	173 (≈ 365 nM)			187.76	301.34	C[C@H]1[C@@H](OCc2c3ccccc3cc3ccccc23)O[C@@H]2O[C@@]3(C)CC[C@H]4[C@H](C)CC[C@@H]1[C@@]24OO3 [Example 12]			In vitro activity: (IC10) ([1]; D6, 66 h): 102.79 ng/mL; IC50 ([1]; D6, 66 h, read-out: In vitro activity: IC50, D6 Strain (Chloroquine sensitive), 66 hours incubation, Albumax medium): 136 ng/mL (≈ 286 nM); IC90 ([1]; D6, 66 h, read-out: In vitro activity: IC90, D6 Strain (Chloroquine sensitive), 66 hours incubation, Albumax medium): 179 ng/mL (≈ 378 nM)
